Measurements: patent US20230348376A1 (TEIJIN PHARMA LIMITED, priority 2020, published 2023)

Target: T1, human VDR (Homo sapiens, UniProt P11473)
T1 sequence (P11473 1-427): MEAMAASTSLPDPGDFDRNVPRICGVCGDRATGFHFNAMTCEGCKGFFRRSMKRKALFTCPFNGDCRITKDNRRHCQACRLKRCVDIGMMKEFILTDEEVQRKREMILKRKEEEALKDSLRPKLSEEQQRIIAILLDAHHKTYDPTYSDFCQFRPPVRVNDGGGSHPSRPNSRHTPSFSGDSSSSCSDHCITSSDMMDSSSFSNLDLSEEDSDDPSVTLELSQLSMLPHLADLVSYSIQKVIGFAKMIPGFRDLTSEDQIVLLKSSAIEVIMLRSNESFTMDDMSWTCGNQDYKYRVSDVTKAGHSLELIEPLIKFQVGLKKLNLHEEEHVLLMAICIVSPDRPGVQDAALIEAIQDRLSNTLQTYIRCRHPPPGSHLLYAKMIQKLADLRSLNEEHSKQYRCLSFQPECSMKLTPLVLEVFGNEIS
T1 sequence (P19793 1-462 partner): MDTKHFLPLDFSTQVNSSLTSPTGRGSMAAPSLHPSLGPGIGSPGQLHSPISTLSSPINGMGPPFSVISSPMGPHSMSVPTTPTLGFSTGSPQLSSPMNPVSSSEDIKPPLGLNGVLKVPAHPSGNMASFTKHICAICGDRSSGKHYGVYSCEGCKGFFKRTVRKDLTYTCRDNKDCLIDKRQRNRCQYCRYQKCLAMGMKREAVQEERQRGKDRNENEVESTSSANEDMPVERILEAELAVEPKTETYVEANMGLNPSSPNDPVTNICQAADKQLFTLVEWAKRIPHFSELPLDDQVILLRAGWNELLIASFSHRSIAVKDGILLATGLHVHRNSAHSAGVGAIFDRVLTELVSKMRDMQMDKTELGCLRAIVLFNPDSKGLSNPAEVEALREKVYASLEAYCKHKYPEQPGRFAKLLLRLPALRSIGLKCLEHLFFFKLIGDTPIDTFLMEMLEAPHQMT
Test: Evaluation of VDR transcription activity in human osteoblasts (HOS cells), luciferase reporter
Details: Activity (EC50, VDR transcription activity), HOS cells transfected with human VDR, human RXRα and DR3 luciferase reporter; 21 hours

Row | SMILES | EC50 [nM]
1 | C[C@H](CCCN1CC[C@H](F)C1)[C@H]1CC[C@H]2/C(=C/C=C3C[C@@H](O)C[C@H](O)C3)CCC[C@]12C [Compound B016, (1R,3R)-5-(2-((1R,3aS,7aR,E)-1-((R)-5-((S)-3-fluoropyrrolidin-1-yl)pentan-2-yl)-7a-methyloctahydro-4H-inden-4-ylidene)ethylidene)cyclohexane-1,3-diol] | 10 to 100
2 | C[C@H](CN1CC[C@H](C(C)(F)F)C1)[C@H]1CC[C@H]2/C(=C/C=C3C[C@@H](O)C[C@H](O)C3)CCC[C@]12C [Compound B030, (1R,3R)-5-(2-((1R,3aS,7aR,E)-1-((S)-1-((S)-3-(1,1-difluoroethyl)pyrrolidin-1-yl)propan-2-yl)-7a-methyloctahydro-4H-inden-4-ylidene)ethylidene)cyclohexane-1,3-diol] | 10 to 100
3 | C=C1/C(=C\C=C2/CCC[C@]3(C)[C@@H](C(C)CN4CC(F)C4)CC[C@@H]23)C[C@@H](O)C[C@@H]1O (stereo in doubt) [Compound A001, (1R,3S,Z)-5-(2-((1R,3aS,7aR,E)-1-((R)-1-(3-fluoroazetidin-1-yl)propan-2-yl)-7a-methyloctahydro-4H-inden-4-ylidene)ethylidene)-4-methylenecyclohexane-1,3-diol] | 100 to 1000
4 | C=C1[C@H](O)CC(=C/C=C2\CCC[C@]3(C)[C@@H]([C@H](C)CN4CC[C@@H](OC(F)F)C4)CC[C@@H]23)C[C@H]1O [Compound B050, (1R,3R)-5-(2-((1R,3aS,7aR,E)-1-((S)-1-((R)-3-(difluoromethoxy)pyrrolidin-1-yl)propan-2-yl)-7a-methyloctahydro-4H-inden-4-ylidene)ethylidene)-2-methylenecyclohexane-1,3-diol] | 1 to 10
5 | C=C1[C@H](O)CC(=C/C=C2\CCC[C@]3(C)[C@@H]([C@H](C)CN4CCC(O)(C5CC5)C4)CC[C@@H]23)C[C@H]1O (stereo partly drawn) [Compound B077, (1R,3R)-5-(2-((1R,3aS,7aR,E)-1-((2S)-1-(3-cyclopropyl-3-hydroxypyrrolidin-1-yl)propan-2-yl)-7a-methyloctahydro-4H-inden-4-ylidene)ethylidene)-2-methylenecyclohexane-1,3-diol] | 10 to 100
6 | C=C1[C@H](O)CC(=C/C=C2\CCC[C@]3(C)[C@@H]([C@H](C)CN4CC(C(C)(F)F)C4)CC[C@@H]23)C[C@H]1O [Compound A007, (1R,3R)-5-(2-((1R,3aS,7aR,E)-1-((S)-1-(3-(1,1-difluoroethyl)azetidin-1-yl)propan-2-yl)-7a-methyloctahydro-4H-inden-4-ylidene)ethylidene)-2-methylenecyclohexane-1,3-diol] | 10 to 100
7 | C=C1[C@H](O)CC(=C/C=C2\CCC[C@]3(C)[C@@H]([C@H](C)CCN4CC[C@H](C(F)F)C4)CC[C@@H]23)C[C@H]1O [Compound B088, (1R,3R)-5-(2-((1R,3aS,7aR,E)-1-((R)-4-((S)-3-(difluoromethyl)pyrrolidin-1-yl)butan-2-yl)-7a-methyloctahydro-4H-inden-4-ylidene)ethylidene)-2-methylenecyclohexane-1,3-diol] | 1 to 10
8 | C=C1[C@H](O)CC(=C/C=C2\CCC[C@]3(C)[C@@H]([C@H](C)CN4CC(OC(F)F)C4)CC[C@@H]23)C[C@H]1O [Compound A018] | 1 to 10
9 | C=C1/C(=C\C=C2/CCC[C@]3(C)[C@@H]([C@H](C)CN4CC[C@@H](CC(F)F)C4)CC[C@@H]23)C[C@@H](O)[C@H](C)[C@@H]1O [Compound B039, (1R,2S,3S,Z)-5-(2-((1R,3aS,7aR,E)-1-((S)-1-((S)-3-(2,2-difluoroethyl)pyrrolidin-1-yl)propan-2-yl)-7a-methyloctahydro-4H-inden-4-ylidene)ethylidene)-2-methyl-4-methylenecyclohexane-1,3-diol] | 1 to 10
10 | C=C1/C(=C\C=C2/CCC[C@]3(C)[C@@H]([C@H](C)CN4CC[C@@H](C(C)(F)F)C4)CC[C@@H]23)C[C@@H](O)[C@H](C)[C@@H]1O [Compound B033, (1R,2S,3S,Z)-5-(2-((1R,3aS,7aR,E)-1-((S)-1-((R)-3-(1,1-difluoroethyl)pyrrolidin-1-yl)propan-2-yl)-7a-methyloctahydro-4H-inden-4-ylidene)ethylidene)-2-methyl-4-methylenecyclohexane-1,3-diol] | 1 to 10
11 | C=C1/C(=C\C=C2/CCC[C@]3(C)[C@@H]([C@H](C)CN4CC[C@@H](C(F)F)C4)CC[C@@H]23)C[C@@H](O)[C@H](C)[C@@H]1O [Compound B025, (1R,2S,3 S,Z)-5-(2-((1R,3aS,7aR,E)-1-((S)-1-((R)-3-(difluoromethyl)pyrrolidin-1-yl)propan-2-yl)-7a-methyloctahydro-4H-inden-4-ylidene)ethylidene)-2-methyl-4-methylenecyclohexane-1,3-diol] | 10 to 100
12 | C=C1[C@H](O)CC(=C/C=C2\CCC[C@]3(C)[C@@H]([C@H](C)CCN4CC(O)(C(F)(F)F)C4)CC[C@@H]23)C[C@H]1O [Compound A023, (1R,3R)-5-(2-((1R,3aS,7aR,E)-1-((R)-4-(3-hydroxy-3-(trifluoromethyl)azetidin-1-yl)butan-2-yl)-7a-methyloctahydro-4H-inden-4-ylidene)ethylidene)-2-methylenecyclohexane-1,3-diol] | < 1

Results, then the compound that gave them:

Row | EC50 [nM] | SMILES
13 | 1 to 10 | C=C1[C@H](O)CC(=C/C=C2\CCC[C@]3(C)[C@@H]([C@H](C)CN4CCOC5(CC5)C4)CC[C@@H]23)C[C@H]1O [Compound D011, (1R,3R)-5-(2-((1R,3aS,7aR,E)-1-((S)-1-(4-oxa-7-azaspiro[2.5]octan-7-yl)propan-2-yl)-7a-methyloctahydro-4H-inden-4-ylidene)ethylidene)-2-methylenecyclohexane-1,3-diol]
14 | 100 to 1000 | CCC1(O)CCCN(C[C@@H](C)[C@H]2CC[C@H]3/C(=C/C=C4C[C@@H](O)C[C@H](O)C4)CCC[C@]23C)C1 (single isomer, unassigned) [Compound C044b]
15 | 10 to 100 | C=C1[C@H](O)CC(=C/C=C2\CCC[C@]3(C)[C@@H]([C@H](C)CN4CCOC[C@@H]4C)CC[C@@H]23)C[C@H]1O [Compound D015, (1R,3R)-5-(2-((1R,3aS,7aR,E)-7a-methyl-1-((S)-1-((S)-3-methylmorpholino)propan-2-yl)octahydro-4H-inden-4-ylidene)ethylidene)-2-methylenecyclohexane-1,3-diol]
16 | 10 to 100 | C=C1[C@H](O)CC(=C/C=C2\CCC[C@]3(C)[C@@H]([C@H](C)CN4CCC(C(F)F)CC4)CC[C@@H]23)C[C@H]1O [Compound C015]
17 | 100 to 1000 | C=C1/C(=C\C=C2/CCC[C@]3(C)[C@@H]([C@@H](C)CN4CC[C@H](C(F)F)C4)CC[C@@H]23)C[C@@H](O)C[C@@H]1O [Compound B095, (1R,3S,Z)-5-(2-((1R,3aS,7aR,E)-1-((R)-1-((S)-3-(difluoromethyl)pyrrolidin-1-yl)propan-2-yl)-7a-methyloctahydro-4H-inden-4-ylidene)ethylidene)-4-methylenecyclohexane-1,3-diol]
18 | 10 to 100 | C=C1/C(=C\C=C2/CCC[C@]3(C)[C@@H]([C@H](C)CN4CCOC(C(F)(F)F)C4)CC[C@@H]23)C[C@@H](O)[C@H](C)[C@@H]1O (single isomer, unassigned) [Compound D009b]
19 | 1 to 10 | C[C@@H](CN1CC[C@@H](C(F)F)C1)[C@H]1CC[C@H]2/C(=C/C=C3CC(O)C[C@H](O)C3)CCC[C@]12C (stereo in doubt) [Compound B100, (1R,3S)-5-(2-((1R,3aS,7aR,E)-1-((R)-1-((R)-3-(difluoromethyl)pyrrolidin-1-yl)propan-2-yl)-7a-methyloctahydro-4H-inden-4-ylidene)ethylidene)cyclohexane-1,3-diol]
20 | 10 to 100 | C=C1[C@H](O)CC(=C/C=C2\CCC[C@]3(C)[C@@H]([C@H](C)CCN4CC[C@@H](CC(F)F)C4)CC[C@@H]23)C[C@H]1O [Compound B092, (1R,3R)-5-(2-((1R,3aS,7aR,E)-1-((R)-4-((S)-3-(2,2-difluoroethyl)pyrrolidin-1-yl)butan-2-yl)-7a-methyloctahydro-4H-inden-4-ylidene)ethylidene)-2-methylenecyclohexane-1,3-diol]
21 | 1 to 10 | C=C1[C@H](O)CC(=C/C=C2\CCC[C@]3(C)[C@@H]([C@H](C)CN4CCCC(O)(CC)C4)CC[C@@H]23)C[C@H]1O (single isomer, unassigned) [Compound C046b]
22 | 10 to 100 | C=C1[C@H](O)CC(=C/C=C2\CCC[C@]3(C)[C@@H]([C@H](C)CN4CCC(O)(C(F)F)CC4)CC[C@@H]23)C[C@H]1O [Compound C022, (1R,3R)-5-(2-((1R,3aS,7aR,E)-1-((S)-1-(4-(difluoromethyl)-4-hydroxypiperidin-1-yl)propan-2-yl)-7a-methyloctahydro-4H-inden-4-ylidene)ethylidene)-2-methylenecyclohexane-1,3-diol]
